This is an account of results in ChEMBL document CHEMBL3046764, “Heterocyclic ortho-quinones, a novel type of Photosystem II inhibitors” (Biochim Biophys Acta, 2001).

Molecules are shown by their SMILES. Activity calls are given as the source filed them. The rule behind the calls is not given here.

For this test, the target named is Photosystem II protein D1 (Chlamydomonas reinhardtii) (UniProt P07753). As to the kind of experiment: Non-competitive displacement of [14C]atrazine from Chlamydomonas reinhardtii photosystem II protein D1 assessed as DCIP-reduction by double-reciprocal plot. In general terms: In a radioligand displacement assay an active substance lowers the binding of a labelled ligand.

For the compound `CCCCCCCC1=C(Br)c2nc3ccccn3c2C(=O)C1=O`, the outcome was Active.
